Results from patent US20240368135A1 (VERTEX PHARMACEUTICALS INCORPORATED, priority 2021, published 2024).

Each compound was assayed against human NaV 1.8 (Homo sapiens, UniProt Q9Y5Y9) (assay: E-VIPR assay detecting and measuring NaV inhibition properties). Conditions: HEK cells expressing truncated human NaV 1.8; in the presence of human serum (compound numbers followed by *); read-out: IC50 in the E-VIPR Assay, performed in the presence of human serum.
Type: cell-based
Outline: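 Membrane potential was followed by coumarin/oxonol FRET during electrical field stimulation of matrigel-seeded HEK cells carrying truncated human NaV1.8 plus KIR2.1. Dosing used 11 points, 3-fold steps, top 300 nM final, 0.625% DMSO, with or without 25% human serum.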

Chain of human NaV 1.8 (Q9Y5Y9 126-399 limits assumed): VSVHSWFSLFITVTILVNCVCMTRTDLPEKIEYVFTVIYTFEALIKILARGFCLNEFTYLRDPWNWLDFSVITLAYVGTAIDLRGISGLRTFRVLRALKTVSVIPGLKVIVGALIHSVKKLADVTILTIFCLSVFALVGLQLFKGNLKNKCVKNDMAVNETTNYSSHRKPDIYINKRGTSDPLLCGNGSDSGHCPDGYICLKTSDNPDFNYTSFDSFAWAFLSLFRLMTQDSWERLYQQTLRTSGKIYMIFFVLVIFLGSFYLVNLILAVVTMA
Chain of human NaV 1.8 (Q9Y5Y9 660-890 limits assumed): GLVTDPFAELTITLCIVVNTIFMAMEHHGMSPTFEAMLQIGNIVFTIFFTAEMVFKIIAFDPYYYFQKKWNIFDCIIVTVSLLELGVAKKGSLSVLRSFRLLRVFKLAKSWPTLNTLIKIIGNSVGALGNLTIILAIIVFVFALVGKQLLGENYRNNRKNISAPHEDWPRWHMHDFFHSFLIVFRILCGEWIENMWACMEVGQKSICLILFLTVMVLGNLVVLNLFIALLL
Chain of human NaV 1.8 (Q9Y5Y9 1148-1722 limits assumed): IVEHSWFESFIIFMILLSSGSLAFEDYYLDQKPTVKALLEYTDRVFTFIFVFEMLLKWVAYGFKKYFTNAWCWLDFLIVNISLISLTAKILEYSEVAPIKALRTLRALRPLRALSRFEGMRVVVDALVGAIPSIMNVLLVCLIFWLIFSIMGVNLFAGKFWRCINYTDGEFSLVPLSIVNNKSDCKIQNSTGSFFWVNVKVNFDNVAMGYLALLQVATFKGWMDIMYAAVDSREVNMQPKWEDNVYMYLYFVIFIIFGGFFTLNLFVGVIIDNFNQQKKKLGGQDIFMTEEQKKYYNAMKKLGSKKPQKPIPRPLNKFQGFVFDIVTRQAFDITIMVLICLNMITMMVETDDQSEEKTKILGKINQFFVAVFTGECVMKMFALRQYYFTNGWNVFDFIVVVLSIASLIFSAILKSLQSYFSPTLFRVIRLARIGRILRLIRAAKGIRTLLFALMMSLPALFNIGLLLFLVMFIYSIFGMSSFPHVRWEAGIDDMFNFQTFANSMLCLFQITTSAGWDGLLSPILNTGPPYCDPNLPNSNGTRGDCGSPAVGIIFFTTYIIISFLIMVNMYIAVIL

Compound	IC50 [nM]
COc1c([C@H]2[C@H](C(=O)Nc3ccnc([S+](C)[O-])c3)O[C@@](C)(C(F)(F)F)[C@H]2C)ccc(F)c1F (single isomer, unassigned) [Compound 9]	< 10
C[C@@H]1[C@H](c2ccc(F)c(F)c2OC(F)F)[C@@H](C(=O)Nc2ccc(=O)n(C)c2)O[C@]1(C)C(F)(F)F (single isomer, unassigned) [Compound 67]	≥ 1000
COc1c([C@H]2[C@H](C(=O)Nc3cnnc(C(O)CO)c3)O[C@@](C)(C(F)(F)F)[C@H]2C)ccc(F)c1F (single isomer, unassigned) [Compound 206, rel-(2R*,3S*,4S*,5R*)-3-(3,4-difluoro-2-methoxyphenyl)-N-(6-(1,2-dihydroxyethyl)pyridazin-4-yl)-4,5-dimethyl-5-(trifluoromethyl)tetrahydrofuran-2-carboxamide]	10 to 100

Same assay, conditions: HEK cells expressing truncated human NaV 1.8; no human serum; read-out: IC50 in the E-VIPR Assay

Compound	IC50 [nM]
COc1c([C@H]2[C@H](C(=O)Nc3cc(C(C)(C)O)ncn3)O[C@@](C)(C(F)(F)F)[C@H]2C)ccc(F)c1F [Compound 389, (2R,3S,4S,5R)-3-(3,4-difluoro-2-methoxy-phenyl)-N-[6-(1-hydroxy-1-methyl-ethyl)pyrimidin-4-yl]-4,5-dimethyl-5-(trifluoromethyl)tetrahydrofuran-2-carboxamide]	10 to 100
COc1c([C@H]2[C@H](C(=O)Nc3cnc(CCO)nc3)O[C@@](C)(C(F)(F)F)[C@H]2C)ccc(F)c1F [Compound 237, (2R,3S,4S,5R)-3-(3,4-difluoro-2-methoxyphenyl)-N-(2-(2-hydroxyethyl)pyrimidin-5-yl)-4,5-dimethyl-5-(trifluoromethyl)tetrahydrofuran-2-carboxamide]	10 to 100
COc1c([C@H]2[C@H](C(=O)Nc3cc(C4CN(C)CCO4)ncc3F)O[C@@](C)(C(F)(F)F)[C@H]2C)ccc(F)c1F (single isomer, unassigned) [Compound 367, rel-(2R*,3S*,4S*,5R*)-3-(3,4-difluoro-2-methoxyphenyl)-N-(5-fluoro-2-(4-methylmorpholin-2-yl)pyridin-4-yl)-4,5-dimethyl-5-(trifluoromethyl)tetrahydrofuran-2-carboxamide]	10 to 100
COc1c([C@H]2[C@H](C(=O)Nc3ccc(N4CCN(C)CC4=O)nc3)O[C@@](C)(C(F)(F)F)[C@H]2C)ccc(F)c1F [Compound 391, (2R,3S,4S,5R)-3-(3,4-difluoro-2-methoxyphenyl)-4,5-dimethyl-N-(6-(4-methyl-2-oxopiperazin-1-yl)pyridin-3-yl)-5-(trifluoromethyl)-tetrahydrofuran-2-carboxamide]	100 to 1000
COc1c([C@H]2[C@H](C(=O)Nc3ccc(-c4ccn(C)n4)nc3)O[C@@](C)(C(F)(F)F)[C@H]2C)ccc(F)c1F [Compound 400, (2R,3S,4S,5R)-3-(3,4-difluoro-2-methoxyphenyl)-4,5-dimethyl-N-(6-(1-methyl-1H-pyrazol-3-yl)pyridin-3-yl)-5-(trifluoromethyl)-tetrahydrofuran-2-carboxamide]	100 to 1000
COc1c([C@H]2[C@H](C(=O)Nc3ccnc([C@@H](O)[C@H](C)O)c3)O[C@@](C)(C(F)(F)F)[C@H]2C)ccc(F)c1F (single isomer, unassigned) [Compound 204, rel-(2R*,3S*,4S*,5R*)-3-(3,4-difluoro-2-methoxyphenyl)-N-(2-((1R,2S)-1,2-dihydroxypropyl)pyridin-4-yl)-4,5-dimethyl-5-(trifluoromethyl)tetrahydrofuran-2-carboxamide]	< 10
COCC(N)c1cc(NC(=O)[C@@H]2O[C@@](C)(C(F)(F)F)[C@@H](C)[C@H]2c2ccc(F)c(F)c2OC)c(F)cn1 (single isomer, unassigned) [Compound 422, rel-(2R*,3S*,4S*,5R*)-N-(2-(1-amino-2-methoxyethyl)-5-fluoropyridin-4-yl)-3-(3,4-difluoro-2-methoxyphenyl)-4,5-dimethyl-5-(trifluoromethyl)-tetrahydrofuran-2-carboxamide]	10 to 100
COc1c([C@H]2[C@H](C(=O)Nc3cnc(CO)n3C)O[C@@](C)(C(F)(F)F)[C@H]2C)ccc(F)c1F [Compound 21, (2R,3S,4S,5R)-3-(3,4-difluoro-2-methoxy-phenyl)-N-[2-(hydroxymethyl)-3-methyl-imidazol-4-yl]-4,5-dimethyl-5-(trifluoromethyl)tetrahydrofuran-2-carboxamide]	10 to 100

Second part, the compound after the results:

IC50 [nM]	Compound
10 to 100	COc1c([C@H]2[C@H](C(=O)Nc3cn(C4CCOCC4)nc3C)O[C@@](C)(C(F)(F)F)[C@H]2C)ccc(F)c1F [Compound 325, (2R,3S,4S,5R)-3-(3,4-difluoro-2-methoxyphenyl)-4,5-dimethyl-N-(3-methyl-1-(tetrahydro-2H-pyran-4-yl)-1H-pyrazol-4-yl)-5-(trifluoromethyl)-tetrahydrofuran-2-carboxamide]
< 10	COc1c([C@H]2[C@H](C(=O)Nc3ccnc(C(C)(O)CO)c3)O[C@@](C)(C(F)(F)F)[C@H]2C)ccc(F)c1F (single isomer, unassigned) [Compound 202, rel-(2R*,3S*,4S*,5R*)-3-(3,4-difluoro-2-methoxyphenyl)-N-(2-(1,2-dihydroxypropan-2-yl)pyridin-4-yl)-4,5-dimethyl-5-(trifluoromethyl)tetrahydrofuran-2-carboxamide]
10 to 100	COc1c([C@H]2[C@H](C(=O)Nc3ccnc(N4C(=O)CNC[C@H]4C)c3)O[C@@](C)(C(F)(F)F)[C@H]2C)ccc(F)c1F [Compound 477, (2R,3S,4S,5R)-3-(3,4-difluoro-2-methoxyphenyl)-4,5-dimethyl-N-(2-((R)-2-methyl-6-oxopiperazin-1-yl)pyridin-4-yl)-5-(trifluoromethyl)tetrahydrofuran-2-carboxamide]
10 to 100	COc1c([C@H]2[C@H](C(=O)Nc3ccc(C[C@@H](O)CO)nc3)O[C@@](C)(C(F)(F)F)[C@H]2C)ccc(F)c1F [Compound 334, (2R,3S,4S,5R)-3-(3,4-difluoro-2-methoxy-phenyl)-N-[6-[(2R)-2,3-dihydroxypropyl]-3-pyridyl]-4,5-dimethyl-5-(trifluoromethyl)tetrahydrofuran-2-carboxamide]
≥ 1000	COc1c(C2C(C(=O)Nc3ccnc(C(C)(C)O)c3)OC(C)(C(F)(F)F)C2C)ccc(F)c1F (single isomer, unassigned) [Compound 47, 3-(3,4-difluoro-2-methoxy-phenyl)-N-[2-(1-hydroxy-1-methyl-ethyl)-4-pyridyl]-4,5-dimethyl-5-(trifluoromethyl)tetrahydrofuran-2-carboxamide]
10 to 100	C[C@H]1[C@@H](c2ccc(F)c(F)c2OCCO)[C@H](C(=O)Nc2cncnc2)O[C@@]1(C)C(F)(F)F [Compound 539, (2R,3S,4S,5R)-3-(3,4-difluoro-2-(2-hydroxyethoxy)phenyl)-4,5-dimethyl-N-(pyrimidin-5-yl)-5-(trifluoromethyl)tetrahydrofuran-2-carboxamide]
100 to 1000	COc1ncc(NC(=O)[C@@H]2O[C@@](C)(C(F)(F)F)[C@@H](C)[C@H]2c2ccc(F)c(F)c2OC)cc1CO [Compound 247, (2R,3S,4S,5R)-3-(3,4-difluoro-2-methoxyphenyl)-N-(5-(hydroxymethyl)-6-methoxypyridin-3-yl)-4,5-dimethyl-5-(trifluoromethyl)tetrahydrofuran-2-carboxamide]
